Results on 3 compounds are retold here after patent US11752122B2 (OKLAHOMA MEDICAL RESEARCH FOUNDATION, priority 2018, dated 2023).

In one data set the test system is mouse model. To be noted: cited from earlier work.
The test system of the next data set is LDLR mice on HFD. Conditions: LDLR mice, very low concentration, preliminary unpublished data. The source says: Mice. Hypercholesterolemic mice deficient for low-density lipoprotein receptors (Ldlr−/−), which only express ApoB-100 (Ldlr−/−Apob100/100, LDLR), were obtained from Jackson Laboratories (B6; 129SLdlrtm1HerApobtm2Sgy/J, stock no. 003000). WT C57bl/6 mice were also obtained from the Jackson Laboratory (stock no. 000664) and served as controls. TGF-β1^platelet-KO-LDLR mice (Pf4Cre+Tgfb1f/f;Ldlr−/−Apob100/100;) and TGF-β1^flox-LDLR littermate controls (Tgfb1f/f;Ldlr−/−Apob100/100) were generated by crossing LDLR mice with Pf4Cre+;Tgfb1f/f mice, as shown in FIGS. 7A-B and Supplemental Table 5. […] The inventor crossed Tie2Cre mice (stock no. 008863, Jackson Laboratories) with tdTomato lox-stop-lox mice (stock no. 007909, Jackson Laboratories) to generate Tie2Cre;tdTomato mice that express tdTomato only under Cre activity. All mice were housed in a controlled environment (23±2° C.; 12 hours light/dark cycles) and fed either a chow diet (CD) (PicoLab® Rodent Diet 20, 5053) or a customized high fat diet (HFD) (Harlan Teklad, TD.9612102. containing 21% milk fat (MF), 1.25% Cholesterol) in powdered form in a glass jar with perforated metal strainer (DYETS, Braintree Scientific Inc.). The Oklahoma Medical Research Foundation's Institutional Animal Care and Usage Committee approved all procedures.
Experimental Design. A total of 118 LDLR (58 Males, 60 Females) and 20 WT mice (10 Males, 10 Females) were used for this study. Half of the mice (6 weeks old) were switched to HFD and maintained for up to 9 months. Progression and severity (mild/moderate/severe) of AS were monitored at 0, 3, 6 and 9 months by echocardiography using non-invasive ultrasound imaging techniques. Five mice per cage (total of 25 males, 15 females) were treated with 2% N-acetylcysteine (NAC) (Acros Organics, 160280010) in drinking water. NAC was prepared in reverse osmosis water and its pH was adjusted to 7.4 with NaOH. Water was replaced with a fresh solution every week.
Echocardiography. Mice were anesthetized with Isoflurane (3-5% inhalation) in an induction chamber. Mice that appeared to be sick due to severe stenosis or that were underweight were anesthetized using a lower isoflurane level to prevent adverse or lethal effects from the anesthetic. Once visibly anesthetized, isoflurane was reduced to 0.5%-2% and the mouse was moved from the chamber to a nose-cone on a heated platform set at 40° C. to maintain body temperature (35±2° C.). Heavier mice were maintained at higher isoflurane levels as they appeared less sensitive to its anesthetic effects. All four limbs were taped to physiological electrodes and a rectal temperature probe was inserted. Electrode gel was used to enhance the physiologic readings. To ensure accuracy of all echo measurements, physiological parameters were monitored and recordings were only taken if the heart rate was 430-550 beats per minute, respiration was 20-100 breaths per minute, and body temperature was close to 37° C. (35±2° C.).
Measurement of AS parameters using a modified view of ultrasound imaging. Echocardiography is the gold standard non-invasive method to measure AS in humans. However, the mouse heart rate is 10-times faster (500 to 600 beats per minute), making the acquisition of high-resolution images of the very thin non-diseased valves challenging. […] LVOT was measured from the long-axis view and was used to calculate AV pressure and normalize the cusp separation (Lindman et al., 2016; Meyer et al., 2012). This view was obtained by tilting the lower left corner of the platform downward by about 30° and angling the transducer up such that it interfaced with the chest cavity by about 45°.

The test system of data set [1] is ascending aortic constriction (AAC) model. Put plainly: Cardiac fibrosis in ascending aortic constriction (AAC) model. To be noted: WT C57Bl/6 mice, very low concentration, preliminary unpublished data. Format: in vivo, mice. The source says:
Ascending Aortic Constriction. Ascending aortic constriction was induced by controlled constriction of the ascending aorta as described previously 26. Briefly, mice were anesthetized with 1.5% isoflurane and the ascending aorta was surgically exposed by a mid-thorax incision. A 2 7-0 suture was placed around both the aorta and an adjacent 27-gauge (0.41 mm OD) needle proximal to the origin of the innominate artery. […] Mice were sacrificed and tissues collected 1 month after the surgery.

The conditions of data set [2]: 2007 study; cited from earlier work.

For `CC(=O)N[C@@H](CSN=O)C(=O)O` [SNOAC, S-nitroso-N-acetylcysteine], in the data set on mouse model (in vitro and in vivo), the “hypoxia-like response in gene expression” value was “induced a hypoxia-like response”. For the same compound, the “blood pressure in the lungs and right ventricle of the heart (pulmonary artery hypertension)” value in the data set on mouse model (mice treated with acetylcysteine, metabolite SNOAC) is on record as “increased”.
`Cc1cccc(-c2nn3c(c2-c2ccnc4ccc(C(N)=O)cc24)CCC3)n1` [galunisertive]: the AS progression result with LDLR mice on HFD is on record as “halted AS progression”. Moreover, the “cardiac fibrosis induced by ascending aortic constriction” value in data set [1] is on record as “inhibited cardiac fibrosis”.
For the compound `CC(C)c1nc(N(C)S(C)(=O)=O)nc(-c2ccc(F)cc2)c1/C=C/[C@@H](O)C[C@@H](O)CC(=O)O` [rosuvastatin], in data set [2], the aortic stenosis progression entry is “slowing of aortic stenosis”.
